Consider 1 compound from patent publication US11932611B1, “3-(5-(3-fluorophenyl)-4-phenyl-4H-1,2,4-triazol-3-ylthio)propanoic acid as an antimicrobial compound” (KING FAISAL UNIVERSITY, priority 2023, dated 2024).

Holding throughout (type): cell-based
In one test the test system is Bacillus cereus. As to the kind of experiment: Agar plate disc-diffusion method, antibacterial inhibition zone. As to conditions: nutrient agar, 37° C., 48 h. As to the method:
(§1) The agar plate disc-diffusion method was applied. […] The discs were then placed onto the surface of agar plates (nutrient agar for bacteria and Sabouraud's dextrose agar for fungi) seeded with the test organism. Each plate contained 15 mL of the agar medium, previously seeded with 0.2 mL of the broth culture of each organism pregrown for 18 h. The plates were incubated at 37° C. for 48 h, and 72 h for fungi. The inhibition zones was measured in mm. Discs impregnated with DMSO were used as a control, and its inhibition zone was subtracted from the tested compound actual inhibition zone.
Background: A growth-free zone around the sample is the usual read-out of agar diffusion tests.

Another test deals with Escherichia coli. The test is described as above. As to conditions: nutrient agar, 37° C., 48 h. The procedure: as §1
The next test concerns Pseudomonas aeruginosa. The description is as above. As to conditions: nutrient agar, 37° C., 48 h. As to the method:
as §1

The subject of a further test is Staphylococcus aureus. The description is as above. The conditions noted are these: nutrient agar, 37° C., 48 h. The procedure: as §1
For the next test, the system named is Aspergillus flavus. As to the kind of experiment: Agar plate disc-diffusion method, antifungal inhibition zone. The conditions noted are these: Sabouraud's dextrose agar, 72 h. The procedure: as §1
Test [1] deals with Chrysosporium keratinophilum. Described as above. The conditions noted are these: Sabouraud's dextrose agar, 72 h. As to the method: as §1
Where [2] appears, read: A = concentration of comp. = 10,000 μL.
Where [3] appears, read: B = concentration of comp. = 30,000 μL.
Setting [4] is: C = concentration of comp. = 50,000 μL.

Consider `O=C(O)CCSc1nnc(-c2cccc(F)c2)n1-c1ccccc1` [III, 3-(5-(3-fluorophenyl)-4-phenyl-4H-1,2,4-triazol-3-ylthio)propanoic acid], for which, in the test with Bacillus cereus (setting [2]), the “inhibition zone, Bacillus Cereus, A” value worked out at 24 mm. Moreover, the “inhibition zone, Bacillus Cereus, B” value in the test on Bacillus cereus (setting [3]) came out at 27 mm. In the test on Bacillus cereus (setting [4]), the “inhibition zone, Bacillus Cereus, C” value worked out at 38 mm. The “inhibition zone, Escherichia coli, A” value in the test on Escherichia coli (setting [2]) is listed as 25 mm. In the test with Escherichia coli (setting [3]), the “inhibition zone, Escherichia coli, B” value was found to be 31 mm. Moreover, the “inhibition zone, Escherichia coli, C” value in the test on Escherichia coli (setting [4]) is 45 mm. In addition, the “inhibition zone, Pseudomonas aeruginosa, A” value with Pseudomonas aeruginosa (setting [2]) was found to be 22 mm. Besides, the “inhibition zone, Pseudomonas aeruginosa, B” value in the test with Pseudomonas aeruginosa (setting [3]) is reported as 24 mm. The “inhibition zone, Pseudomonas aeruginosa, C” value with Pseudomonas aeruginosa (setting [4]) was 41 mm. Moreover, the “inhibition zone, Staphylococcus aureus, A” value in the test with Staphylococcus aureus (setting [2]) was 27 mm. Moreover, in the test on Staphylococcus aureus (setting [3]), the “inhibition zone, Staphylococcus aureus, B” value is 34 mm. Moreover, in the test with Staphylococcus aureus (setting [4]), the “inhibition zone, Staphylococcus aureus, C” value stood at 45 mm. Besides, in the test with Aspergillus flavus (setting [2]), the “inhibition zone, Aspergillus flavus, A” value came out at 19 mm. In addition, in the test with Aspergillus flavus (setting [3]), the “inhibition zone, Aspergillus flavus, B” value came out at 25 mm. Also, the “inhibition zone, Aspergillus flavus, C” value in the test on Aspergillus flavus (setting [4]) came out at 36 mm. Besides, the “inhibition zone, Chrysosporium keratinophilum, A” value in test [1] (setting [2]) came out at 23 mm. For the same compound, the “inhibition zone, Chrysosporium keratinophilum, B” value in test [1] (setting [3]) is given as 26 mm. Besides, the “inhibition zone, Chrysosporium keratinophilum, C” value in test [1] (setting [4]) was 43 mm.
